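Interpolation was linear, between the two tested concentrations surrounding the appropriate level; five concentrations were tested over 48 hours in 96-well plates. The concentration for 50% growth inhibition is given as GI50.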 The source made the active and inactive calls. Cut-off read from the data, not from the text of the source: active = GI50 up to about 1.1 µM and inactive = higher. A value given as a limit tells only on which side of the number the result lay.

What all share (assay): NCI anticancer screen, dose series, 48 h
Assay [1] relates to NCI/ADR-RES.
Assay [2] deals with MDA-N.
The test system of assay [3] is RXF 393.
The test system of assay [4] is Hs-578T.
The subject of assay [5] is 786-0.
Assay [6] deals with KM12.
In assay [7] the test system is LOX IMVI.
The subject of assay [8] is UACC-257.
Assay [9] relates to HOP-92.
The test system of assay [10] is HOP-62.
For assay [11], the system named is Malme-3M.
For assay [12], the system named is T47D.
In assay [13] the test system is K562.
The subject of assay [14] is OVCAR-4.
The subject of assay [15] is HCT-15.
Assay [16] has as its system HL-60.
Assay [17] concerns SK-MEL-5.
The subject of assay [18] is SW-620.
Assay [19] relates to CAKI-1.

Regarding `CC(=O)c1c(C(F)(F)F)[n+]([O-])c2cc(Cl)c(Cl)cc2[n+]1[O-]`, the GI50 in [1] is 1.5 µM (inactive); in assay [2], 1.12 µM (inactive); in assay [3] it was 0.895 µM (active); in [4], 0.483 µM (active); in assay [5], 0.168 µM (active); in [6], 0.109 µM (active). Moreover, the GI50 in [7] was 0.157 µM (active); in [8], 0.762 µM (active); in assay [9], 0.195 µM (active); in [10], 0.27 µM (active); in assay [11], 0.685 µM (active); in [12], 0.338 µM (active). Further, the GI50 was 0.977 µM (active) in [13]; 1.4 µM (inactive) in assay [14]; 0.196 µM in assay [15]; 0.338 µM (active) in [16]; 0.796 µM (active) in [17]; 0.393 µM (active) in assay [18]. For the same compound, the GI50 in assay [19] is 1.44 µM (inactive).

In the case of `COC(=O)c1ccc([N+](=O)[O-])c(O)c1`, the GI50 in assay [1], in assay [2], in assay [3], in assay [4], in assay [5] and in [6] was > 100 µM (inactive) each time. The GI50 in assay [7], in assay [8], in [9], in assay [10], in assay [11] and in [12] was > 100 µM (inactive) each time. Further, the GI50 was > 100 µM (inactive) in assay [13]; 19.9 µM (inactive) in assay [14]; above 100 µM in [15]; > 100 µM (inactive) in assay [16]; > 100 µM (inactive) in [17]; > 100 µM (inactive) in [18]. For the same compound, in [19], the GI50 is > 100 µM (inactive).

For the compound `C#CCN(Cc1ccc2nc(OC)c(OC)nc2c1)c1cc(OC)c(OC)c(OC)c1`, the GI50 in [1] was 10.7 µM (inactive); in [2], 7.31 µM (inactive); in assay [3], 14.9 µM (inactive); in assay [4], 21.2 µM (inactive); in assay [5], 24 µM (inactive); in assay [6], 15 µM (inactive). Further, the GI50 in assay [7] was 11.7 µM (inactive); in assay [8], 12.3 µM (inactive); in [9] it was 7.43 µM (inactive); in assay [10], 22.9 µM (inactive); in assay [11] it was 23 µM (inactive); in [12], 18.4 µM (inactive). In addition, the GI50 is 3.98 µM (inactive) in assay [13]; 13.4 µM (inactive) in assay [14]; 22.9 µM in assay [15]; 12.7 µM (inactive) in assay [16]; 7.82 µM (inactive) in [17]; 30.2 µM (inactive) in assay [18]. Also, in assay [19], the GI50 is 24.2 µM (inactive).

On to `COc1ccc(N2C(=O)/C(=C\c3cccc(Oc4ccccc4)c3)SC2c2ccccc2)cc1` (centres undefined), for which the GI50 was 42.5 µM (inactive) in [1]; 29.3 µM (inactive) in [2]; 8.59 µM (inactive) in [3]; 10.3 µM (inactive) in assay [4]; > 100 µM (inactive) in assay [5]; 45 µM (inactive) in assay [6]. The GI50 in assay [7] was 21.9 µM (inactive); in assay [8], 38.7 µM (inactive); in assay [9], 28.2 µM (inactive); in assay [10] it was 64.9 µM (inactive); in assay [11], 34.6 µM (inactive); in assay [12] it was 37.5 µM (inactive). In addition, the GI50 in [13] was 26.4 µM (inactive); in assay [14] it was 40.2 µM (inactive); in [15] it was above 100 µM; in assay [16], 20.5 µM (inactive); in assay [17] it was 27.9 µM (inactive); in [18], 32.9 µM (inactive). In addition, the GI50 in assay [19] is > 100 µM (inactive).

For the compound `CCOc1cc(-c2nc3ccccn3c2/N=C/c2cc([N+](=O)[O-])cc([N+](=O)[O-])c2O)ccc1O`, the GI50 in assay [1], in assay [2], in assay [3], in assay [4], in [5] and in assay [6] was > 100 µM (inactive) each time. In addition, the GI50 in [7], in [8], in [9], in [10], in assay [11] and in assay [12] was > 100 µM (inactive) in each case. In addition, the GI50 is > 100 µM (inactive) in [13]; > 100 µM (inactive) in [14]; above 100 µM in [15]; > 100 µM (inactive) in assay [16]; > 100 µM (inactive) in assay [17]; > 100 µM (inactive) in assay [18]. Moreover, the GI50 in [19] was > 100 µM (inactive).

As to `O=C1/C(=C/c2cccnc2)C(n2cccc2)c2c(Br)sc(Br)c21` (centres undefined), the GI50 in assay [1] is 7.43 µM (inactive); in [2], 2.05 µM (inactive); in assay [3], 2.4 µM (inactive); in assay [4], 2.94 µM (inactive); in assay [5] it was 2.55 µM (inactive); in assay [6], 3.43 µM (inactive). The GI50 in [7] was 1.93 µM (inactive); in assay [8], 1.72 µM (inactive); in assay [9] it was 2.01 µM (inactive); in assay [10] it was 2.73 µM (inactive); in assay [11], 3.01 µM (inactive); in [12] it was 2.82 µM (inactive). For the same compound, the GI50 in [13] is 2.17 µM (inactive); in assay [14], 2.07 µM (inactive); in assay [15], 2.02 µM; in assay [16], 1.83 µM (inactive); in [17], 7.18 µM (inactive); in [18] it was 2.32 µM (inactive). Also, in [19], the GI50 is 2.59 µM (inactive).

As for `CC(=O)OCC1OC(n2c(S)nc(-c3ccccc3)c(C#N)c2=O)C(OC(C)=O)C(OC(C)=O)C1OC(C)=O` (centres undefined), the GI50 in assay [1], in assay [2], in assay [3], in assay [4], in assay [5] and in [6] was > 100 µM (inactive) throughout. The GI50 in assay [7], in assay [8], in [9], in [10], in assay [11] and in assay [12] was > 100 µM (inactive) each time. In addition, the GI50 in [13] was > 100 µM (inactive); in assay [14], > 100 µM (inactive); in assay [15] it was above 100 µM; in [16], > 100 µM (inactive); in [17], > 100 µM (inactive); in assay [18], > 100 µM (inactive). Besides, the GI50 in assay [19] was > 100 µM (inactive).

With `COC(=O)C1=C(O)c2ccc(Cl)cc2S(=O)(=O)N1C`, the GI50 in assay [1] was 19.1 µM (inactive); in assay [2], > 100 µM (inactive); in assay [3] it was > 100 µM (inactive); in [4], > 100 µM (inactive); in [5], > 100 µM (inactive); in [6], > 100 µM (inactive). Besides, the GI50 was > 100 µM (inactive) in assay [7]; 93.3 µM (inactive) in assay [8]; 59 µM (inactive) in [9]; > 10 µM (inactive) in assay [10]; 77.6 µM (inactive) in assay [11]; > 100 µM (inactive) in [12]. For the same compound, the GI50 in assay [13] was 32.1 µM (inactive); in assay [14], 45.1 µM (inactive); in assay [15], 45.1 µM; in assay [16] it was 33.8 µM (inactive); in [17], 97.1 µM (inactive); in assay [18], 80.2 µM (inactive). Moreover, the GI50 in assay [19] is > 100 µM (inactive).

Regarding `CN(C)CCOc1ccc(-c2c(Oc3ccc(Cl)cc3)c(=O)oc3ccccc23)cc1`, the GI50 was > 35.1 µM (inactive) in assay [1]; 2.61 µM (inactive) in assay [2]; 8.09 µM (inactive) in assay [3]; 8.59 µM (inactive) in [4]; 4.27 µM (inactive) in [5]; 9.57 µM (inactive) in assay [6]. In addition, the GI50 in [7] is 6.98 µM (inactive); in assay [8], 5.13 µM (inactive); in assay [9], 19.5 µM (inactive); in assay [10], 21.9 µM (inactive); in [11], 5.83 µM (inactive); in [12], 8.87 µM (inactive). Also, the GI50 is 3.84 µM (inactive) in assay [13]; 9.68 µM (inactive) in assay [14]; 6.95 µM in assay [15]; 5.61 µM (inactive) in [16]; 2.01 µM (inactive) in assay [17]; > 23.5 µM (inactive) in assay [18]. Also, in assay [19], the GI50 is 12.9 µM (inactive).

With `O=C(O)C1C2C=CC(O2)C1C(=O)NCc1ccccn1` (centres undefined), the GI50 was > 100 µM (inactive) in assay [1]; > 100 µM (inactive) in assay [2]; 44.5 µM (inactive) in [3]; > 100 µM (inactive) in assay [4]; > 100 µM (inactive) in assay [5]; > 100 µM (inactive) in [6]. Besides, the GI50 in assay [7], in assay [8], in assay [9], in assay [10], in assay [11] and in assay [12] was > 100 µM (inactive) each time. Moreover, the GI50 is > 100 µM (inactive) in [13]; > 100 µM (inactive) in assay [14]; above 100 µM in [15]; > 100 µM (inactive) in assay [16]; > 100 µM (inactive) in assay [17]; > 100 µM (inactive) in assay [18]. Besides, the GI50 in assay [19] was > 100 µM (inactive).

As for `CC(CC(=O)O)(CC(=O)O)c1ccccc1`, the GI50 in assay [1], in assay [2], in assay [3], in assay [4], in assay [5] and in assay [6] was > 100 µM (inactive) throughout. In addition, the GI50 in [7], in [8], in [9], in assay [10], in assay [11] and in assay [12] was > 100 µM (inactive) each time. Moreover, the GI50 in assay [13] was 50.2 µM (inactive); in assay [14], > 100 µM (inactive); in assay [15] it was above 100 µM; in assay [16], > 100 µM (inactive); in assay [17], > 100 µM (inactive); in [18], > 100 µM (inactive). Besides, the GI50 in [19] is > 100 µM (inactive).

These data come from ChEMBL document CHEMBL1201862, “PubChem BioAssay data set” (2004).
